Drawing on publication PMC5504166, “Rosmarinic Acid Protects against Inflammation and Cardiomyocyte Apoptosis during Myocardial Ischemia/Reperfusion Injury by Activating Peroxisome Proliferator-Activated Receptor Gamma” (Frontiers in Pharmacology, 2017), this text covers EC50 and IC50 for one molecule.

SMILES strings stand for the structures.

The target of one assay is T1, PPARγ (Homo sapiens, UniProt P37231).
T1 construct: gene PPARG
T1 sequence (P37231 1-505): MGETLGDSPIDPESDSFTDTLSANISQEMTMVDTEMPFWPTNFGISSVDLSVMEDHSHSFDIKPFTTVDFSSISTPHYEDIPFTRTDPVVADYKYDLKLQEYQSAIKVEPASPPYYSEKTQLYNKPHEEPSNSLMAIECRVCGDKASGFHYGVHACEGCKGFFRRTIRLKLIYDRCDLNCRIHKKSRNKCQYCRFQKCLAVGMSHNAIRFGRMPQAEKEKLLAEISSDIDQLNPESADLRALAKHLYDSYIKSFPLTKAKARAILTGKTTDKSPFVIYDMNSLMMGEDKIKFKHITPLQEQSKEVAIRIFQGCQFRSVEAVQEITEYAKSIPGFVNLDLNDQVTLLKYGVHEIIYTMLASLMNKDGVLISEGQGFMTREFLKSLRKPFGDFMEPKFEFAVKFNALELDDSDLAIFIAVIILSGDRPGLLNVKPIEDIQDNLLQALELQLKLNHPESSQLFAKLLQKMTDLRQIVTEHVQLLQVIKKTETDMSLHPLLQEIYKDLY
Description: PolarScreen PPAR Gamma Competitor Assay, Green (fluorescence polarization competition). The following applies: read-out: EC50 (mean ± SD μM). In kind it is binding.

Assay [1] has as its target T2, PTGS2/COX2 (Prostaglandin G/H synthase 2) (Ovis aries, UniProt P79208).
T2 sequence (P79208 17-603): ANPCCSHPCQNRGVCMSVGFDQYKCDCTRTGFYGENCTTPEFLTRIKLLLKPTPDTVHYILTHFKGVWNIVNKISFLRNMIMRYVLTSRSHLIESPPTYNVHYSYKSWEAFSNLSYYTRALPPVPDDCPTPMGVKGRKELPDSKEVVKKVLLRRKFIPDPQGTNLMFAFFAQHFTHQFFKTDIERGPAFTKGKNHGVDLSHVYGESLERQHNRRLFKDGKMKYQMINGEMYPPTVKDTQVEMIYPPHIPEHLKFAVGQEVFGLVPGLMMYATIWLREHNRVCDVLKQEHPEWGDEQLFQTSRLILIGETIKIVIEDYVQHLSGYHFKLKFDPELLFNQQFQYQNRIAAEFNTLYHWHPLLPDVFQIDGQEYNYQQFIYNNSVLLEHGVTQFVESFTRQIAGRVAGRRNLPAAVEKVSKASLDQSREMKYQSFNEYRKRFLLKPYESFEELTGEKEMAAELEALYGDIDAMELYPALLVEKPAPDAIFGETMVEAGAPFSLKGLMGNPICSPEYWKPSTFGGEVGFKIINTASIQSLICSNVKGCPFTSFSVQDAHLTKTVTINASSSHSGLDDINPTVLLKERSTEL
Description: Colorimetric COX (ovine) inhibitor screening assay kit (Cayman). In kind it is biochemical. To be noted: read-out: IC50 (mean ± SD μM).

As for `O=C(/C=C/c1ccc(O)c(O)c1)O[C@H](Cc1ccc(O)c(O)c1)C(=O)O` [RosA, Rosmarinic acid], the EC50 (in general, the concentration that produces a half-maximal response) at PPARγ stood at 55.8 ± 3.45 µM. The IC50 (as a rule, the concentration that gives 50% inhibition) in assay [1] is 170 ± 9.18 µM.
